Measured values taken from patent US11434242B2, “Dopamine-b-hydroxylase inhibitors” (BIAL-PORTELA & Cª, S.A., priority 2017, dated 2022).

Target: T1, Dopamine beta hydroxylase (Homo sapiens, UniProt P09172)
T1 construct: 125 μl of plasma; tissue Instituto Português do Sangue Transplantação; host or cells: human plasma from healthy donors
T1 sequence (P09172 40-617 limits assumed): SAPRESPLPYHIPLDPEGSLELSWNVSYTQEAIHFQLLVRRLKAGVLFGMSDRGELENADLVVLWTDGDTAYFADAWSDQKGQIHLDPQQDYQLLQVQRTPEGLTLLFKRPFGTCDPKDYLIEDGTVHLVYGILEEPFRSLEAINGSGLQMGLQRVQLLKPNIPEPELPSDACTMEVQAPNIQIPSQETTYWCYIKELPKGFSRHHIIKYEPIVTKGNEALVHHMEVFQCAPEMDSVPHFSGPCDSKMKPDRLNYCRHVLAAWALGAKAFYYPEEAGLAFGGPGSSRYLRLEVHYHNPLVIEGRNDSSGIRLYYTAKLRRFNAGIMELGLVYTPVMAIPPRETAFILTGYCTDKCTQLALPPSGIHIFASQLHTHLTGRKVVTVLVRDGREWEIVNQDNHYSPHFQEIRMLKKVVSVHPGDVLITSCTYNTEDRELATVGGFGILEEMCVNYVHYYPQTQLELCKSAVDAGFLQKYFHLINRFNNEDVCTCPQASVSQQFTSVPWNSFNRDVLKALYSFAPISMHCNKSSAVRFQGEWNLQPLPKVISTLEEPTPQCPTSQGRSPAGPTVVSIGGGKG
Experiment: Dopamine beta hydroxylase activity in human plasma
Assay type: biochemical
Details: for Plasma (0.01 μM), activity in % of control: inhibitor 0.01 μM; for Plasma (0.1 μM), activity in % of control: inhibitor 0.1 μM
Summary of the method: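 Octopamine production from tyramine over 45 min at 37° C, measured photometrically at 330 nm after SCX extraction and periodate oxidation against an octopamine standard curve, indicates plasma DβH activity. Compounds tested at final 10, 100 and 1000 nM in human plasma, pH 5.0 cofactor buffer, 10 min preincubation; results as % of control.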

Cn1c(CCC(=O)NCC#N)c2n(c1=S)C[C@@H](c1c(F)ccc(F)c1F)C2 [Example 270, (R)—N-(cyanomethyl)-3-(2-methyl-3-thioxo-6-(2,3,6-trifluorophenyl)-2,5,6,7-tetrahydro-3H-pyrrolo[1,2-c]imidazol-1-yl)propanamide]
Plasma (0.01 μM), activity in % of control: 88.1 % of control | Plasma (0.1 μM), activity in % of control: 53.8 % of control

Cn1c(CC(=O)NC2CCCC2)c2n(c1=S)C[C@@]1(c3c(F)ccc(Cl)c3F)C[C@@H]21 [Example 271, 2-((5aS,6aR)-5a-(3-chloro-2,6-difluorophenyl)-2-methyl-3-thioxo-2,3,5,5a,6,6a-hexahydrocyclopropa[3,4]pyrrolo[1,2-c]imidazol-1-yl)-N-cyclopentylacetamide]
Plasma (0.01 μM), activity in % of control: 62.1 % of control | Plasma (0.1 μM), activity in % of control: 13.2 % of control

Cn1c(CC(=O)NC2CCCC2)c2n(c1=S)C[C@@]1(c3cc(Br)ccc3F)C[C@@H]21 [Example 272, 2-((5aS,6aR)-5a-(5-bromo-2-fluorophenyl)-2-methyl-3-thioxo-2,3,5,5a,6,6a-hexahydrocyclopropa[3,4]pyrrolo[1,2-c]imidazol-1-yl)-N-cyclopentylacetamide]
Plasma (0.01 μM), activity in % of control: 73.5 % of control | Plasma (0.1 μM), activity in % of control: 22.7 % of control

Cn1c(CC(=O)NC2CCCC2)c2n(c1=S)C[C@@]1(c3cc(Cl)ccc3F)C[C@@H]21 [Example 273, 2-((5aS,6aR)-5a-(5-chloro-2-fluorophenyl)-2-methyl-3-thioxo-2,3,5,5a,6,6a-hexahydrocyclopropa[3,4]pyrrolo[1,2-c]imidazol-1-yl)-N-cyclopentylacetamide]
Plasma (0.01 μM), activity in % of control: 86.6 % of control | Plasma (0.1 μM), activity in % of control: 28.9 % of control

Cn1c(CC(=O)N[C@@H]2CCOC2)c2n(c1=S)C[C@@]1(c3c(F)ccc(Cl)c3F)C[C@@H]21 [Example 274, 2-((5aS,6aR)-5a-(3-chloro-2,6-difluorophenyl)-2-methyl-3-thioxo-2,3,5,5a,6,6a-hexahydrocyclopropa[3,4]pyrrolo[1,2-c]imidazol-1-yl)-N—((R)-tetrahydrofuran-3-yl)acetamide]
Plasma (0.01 μM), activity in % of control: 55.9 % of control | Plasma (0.1 μM), activity in % of control: 11.2 % of control

Cn1c(CC(=O)O)c2n(c1=S)C[C@@]1(c3cc(Br)ccc3F)C[C@@H]21 [Example 275, 2-((5aS,6aR)-5a-(5-bromo-2-fluorophenyl)-2-methyl-3-thioxo-2,3,5,5a,6,6a-hexahydrocyclopropa[3,4]pyrrolo[1,2-c]imidazol-1-yl)acetic acid]
Plasma (0.01 μM), activity in % of control: 79.0 % of control | Plasma (0.1 μM), activity in % of control: 24.4 % of control

Cn1c(CC(=O)O)c2n(c1=S)C[C@@]1(c3cc(Cl)ccc3F)C[C@@H]21 [Example 276, 2-((5aS,6aR)-5a-(5-chloro-2-fluorophenyl)-2-methyl-3-thioxo-2,3,5,5a,6,6a-hexahydrocyclopropa[3,4]pyrrolo[1,2-c]imidazol-1-yl)acetic Acid]
Plasma (0.01 μM), activity in % of control: 83.3 % of control | Plasma (0.1 μM), activity in % of control: 33.3 % of control

Cn1c(CC(=O)N[C@@H]2CCCOC2)c2n(c1=S)C[C@@]1(c3cc(Br)ccc3F)C[C@@H]21 [Example 277, 2-((5aS,6aR)-5a-(5-bromo-2-fluorophenyl)-2-methyl-3-thioxo-2,3,5,5a,6,6a-hexahydrocyclopropa[3,4]pyrrolo[1,2-c]imidazol-1-yl)-N—((R)-tetrahydro-2H-pyran-3-yl)acetamide]
Plasma (0.01 μM), activity in % of control: 35.4 % of control | Plasma (0.1 μM), activity in % of control: 3.4 % of control

Cn1c(CC(=O)N[C@@H]2CCCOC2)c2n(c1=S)C[C@@H](c1c(F)c(F)cc(F)c1F)C2 [Example 278, 2-((R)-2-methyl-6-(2,3,5,6-tetrafluorophenyl)-3-thioxo-2,5,6,7-tetrahydro-3H-pyrrolo[1,2-c]imidazol-1-yl)-N—((R)-tetrahydro-2H-pyran-3-yl)acetamide]
Plasma (0.01 μM), activity in % of control: 84.2 % of control | Plasma (0.1 μM), activity in % of control: 62.0 % of control
